According to patent publication US8168391B2, “Method for modulating insulin production” (Burnham Institute for Medical Research, priority 2007, dated 2012):
Counter-ions that a name gives are not always drawn.

tested on: insulin promoter; experiment: Insulin promoter/reporter screen in the presence of a fatty acid (reversal of palmitate-induced lipotoxicity); format: cell-based, human; details: screen in presence of fatty acid (FIG. 20) vs not in presence (FIG. 19)
Source text: The assays employ a cell line derived from human fetal islet cells (T6PNE) in which the cells are infected with a promoter/reporter construct. The construct is shown in FIG. 7 and incorporates an insulin promoter operably linked to an eGFP. Cells were infected and plated, and candidate libraries screened and “hit” detected as discussed in Example 1.
To differentiate between agents that specifically act to reverse lipotoxicity as compared to generally increasing transcription of insulin a two layer screening approach was utilized. In the first layer, islet cells infected with an insulin promoter/reporter construct are screened in the absence of a fatty acid. A “hit” indicates an agent that is capable of increasing insulin transcription. In the second layer, islet cells infected with an insulin promoter/reporter construct are screened in the presence of a fatty acid. A “hit” indicates a drug that reverses the effects of the fatty acid addition, for example reduction of insulin transcription. This drugs screened in both layers may be used to identify whether the drug is specific to lipotoxicity reversal. For example, drugs that are “hits” in the second layer screen but not in the first layer screen are specific to lipotoxicity reversal.

Q: With `CC(=O)Oc1c(C)c(C)c2c(c1C)CCC(C)(CCC[C@H](C)CCC[C@H](C)CCCC(C)C)O2` (stereo partly drawn) [alpha-tocopheryl acetate] as the compound, how does the “reversal of palmitate-induced lipotoxicity” value (“reversal” for short) read?
A: expected to reverse lipotoxicity

Q: How did the “reversal” value turn out when `Cc1cccc(Nc2ccccc2C(=O)O)c1C` [mefenamic acid] was run?
A: expected to reverse lipotoxicity

Q: With `CC[C@H](C)C(=O)O[C@H]1C[C@@H](C)C=C2C=C[C@H](C)[C@H](CC[C@@H]3C[C@@H](O)CC(=O)O3)[C@H]21` [lovastatin] as the compound, how does the “reversal” value read?
A: expected to reverse lipotoxicity

Q: `CC(Cc1cccc(C(F)(F)F)c1)NCCOC(=O)c1ccccc1` (stereo not drawn) [benfluorex hydrochloride] was tested. Which “reversal” value did it give?
A: expected to reverse lipotoxicity

Q: Which “reversal” value does the source give for `Clc1ccc(C(OCCN2CCCCC2)c2ccccc2)cc1` (stereo not drawn) [cloperastine hydrochloride] here?
A: expected to reverse lipotoxicity

Q: With `CC1=C(/C=C/C(C)=C/C=C/C(C)=C/C=C/C=C(C)/C=C/C=C(C)/C=C/C2=C(C)CCCC2(C)C)C(C)(C)CCC1` [beta-carotene] as the compound, how does the “reversal” value read?
A: expected to reverse lipotoxicity

tested on: insulin promoter; experiment: HTS insulin promoter/eGFP reporter screen in T6PNE cells (absence of fatty acid); format: cell-based, human; details: ChemBridge DiverSet library screen as in Example 2
Procedure: A library of 1000 candidate drug compounds was initially screened using NEPCs cultured in a 384-well HTS format using the following method. NEPCs were infected with promoter/reporter constructs in suspension for 6 hours. The cells were then directly plated on Collagen I coated 384-well microtiter plates in media containing 10% plasma. Monolayer formation was allowed to progress by culture for 4 days with regular media changes. Library compounds were then contacted with the cells and added at a final concentration of 5 μM and incubated for 48 hours. Image analysis was then performed using fluorescent microscopy using DAPI […] and imaging of GFP to determine promoter activation activity of individual compounds. Image analysis algorithms are further refined to eliminate auto-fluorescent debris to accurately quantify green fluorescence. The assays employ a cell line derived from human fetal islet cells ([…]) in which the cells are infected with a promoter/reporter construct. The construct is shown in FIG. 7 and incorporates an insulin promoter operably linked to an eGFP. Cells were infected and plated, and candidate libraries screened and “hit” detected as discussed in Example 1. To differentiate between agents that specifically act to reverse lipotoxicity as compared to generally increasing transcription of insulin a two layer screening approach was utilized. In the first layer, islet cells infected with an insulin promoter/reporter construct are screened in the absence of a fatty acid. A “hit” indicates an agent that is capable of increasing insulin transcription. In the second layer, islet cells infected with an insulin promoter/reporter construct are screened in the presence of a fatty acid. A “hit” indicates a drug that reverses the effects of the fatty acid addition, for example reduction of insulin transcription. This drugs screened in both layers may be used to identify whether the drug is specific to lipotoxicity reversal. For example, drugs that are “hits” in the second layer screen but not in the first layer screen are specific to lipotoxicity reversal. […]

Q: Which “upregulation of the insulin promoter” value does the source give for `NCCc1ccc(O)c(O)c1` [dopamine] here?
A: upregulated the insulin promoter

same assay, conditions: repeat of initial screen with dose response; T6PNE cells, insulin promoter-eGFP

Q: With `CCN(CC)C(C)CN1c2ccccc2Sc2ccccc21` (stereo not drawn) [ethopropazine] as the compound, how does the “activator of insulin promoter confirmed in confirmatory screen” value read?
A: confirmed

Q: For `CN(C)CCCN1c2ccccc2Sc2ccc(Cl)cc21` [chlorpromazine], which “activator of insulin promoter confirmed in confirmatory screen” value is on record?
A: confirmed
